Assay results taken from patent US9428732B2, “Compositions and methods for differentiating pluripotent stem cells into primitive blood cells and uses thereof” (Primorigen Biosciences, Inc., priority 2011, dated 2016).

Legend:
Assay type in all cases: cell-based, human
[1] = tested on: hematopoietic progenitor cells differentiated from iPS cells; assay: Colony Forming Unit (CFU) assay in methyl cellulose with DEAB; settings: 10 µM DEAB; 14 days MethoCult
Description: (§1) The differentiation cultures were trypsinized at the indicated time points and single-cell suspensions were generated following trypsinization. For the Colony Forming Unit (CFU) assays using methyl cellulose cultures, 25% of the cells were plated in 2 ml of MethoCult H4435 (STEMCELL Technologies, Vancouver, BC) in six-well plates. Alternatively, sorted CD45+, CD43+, CD34+, 7AAD-cells were sorted and plated at 500 cells per 2 ml Methocult media. Cells were incubated for 14 days in a humidified incubator at 37° C. with 5% CO2 and evaluated for colonies by bright-field microscopy (Zeiss (Oberkochen, Germany, www.zeiss.com) Axiovert 200 with a Zeiss Axiocam), Cells were resuspended in PBS supplemented with 2% FBS. For the lymphoid myeloid differentiation assays, either CD45+, CD43+, CD34+, 7AAD-hematopoietic progenitors, or CD45+, CD43+, CD34+, CD38−, CD90+, CD45RA− phenotypic HSCs were plated at 20-40 cells per well onto OP9 and OP9delta feeder lines for B-cell and T-cell differentiation, respectively, as previously described (Nozad Charoudeh H, Tang Y, Cheng M, Cilio C M, Jacobsen S E, Sitnicka E., Identification of an NK/T cell-restricted progenitor in adult bone marrow contributing to bone marrow- and thymic-dependent NK cell, Blood, 2010 Jul. 15; 116(2):183-92. NK cell differentiation as well as myeloid cell differentiation was also detected in this differentiation system. […]

[2] = tested on: pluripotent stem cell differentiation cultures; assay: Beating cardiomyocyte colonies in differentiation cultures; settings: cultures using DEAB; data not shown
Excerpt: Within the mesoderm lineage we then quantified the expression of markers of the paraxial (FOXC1) and lateral plate (FOXF1, hematopoietic and cardiac precursor) mesoderm. […] This is likely the result of anterior lateral plate mesoderm formation (precursors of the heart). We saw a dramatic upregulation of the cardiogenic mesoderm marker NKX2.5 in the DMSO control at this time point (FIG. 6G, Day 12 onward).

[3] = tested on: iPS-derived hematopoietic progenitors and phenotypic HSCs; assay: Differentiation into lymphocytes on OP9 and OP9delta feeder lines, FACS; settings: cells generated from iPS cells with DEAB at 10 uM; 14 to 21 days
Description: as §1

CCN(CC)c1ccc(C=O)cc1 [DEAB, 4-diethylaminobenzaldehyde]
levels of all four major CFU assay types (CFU-G, CFU-M, CFU-GEMM, BFU-E) [1]: measurable levels
total number of colonies vs cells not differentiated in the presence of DEAB (DMSO control) [1]: more than double
numbers of beating cardiomyocytes colonies [2]: significantly reduced numbers
ability of generated HSCs to differentiate into lymphoid cells (B, NK, T) [3]: capable of differentiating to each type of tested lymphocyte
